What all share (assay type): cell-based
Test [1] has as its target T1, human EDG1 (S1PR1) receptor (Homo sapiens, UniProt P21453).
T1 construct: expressed in transfected cells; host or cells: CHO-A21-Edg1#17 (CHO clone co-expressing mitochondrial aequorin and chimaeric Gaqi5)
As to the kind of experiment: Aequorin assay, agonist potency, CHO-A21-Edg1#17 cells. The note with it: agonist mode, aequorin luminescence; read-out: S1P1 EC50. Summed up:
(§1)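 CHO cells coexpressing receptor, mitochondrial aequorin and Gαqi5 (S1P3 pool: GNA16) were loaded overnight at RT with 5 μM coelenterazine h in 0.1% fatty-acid-free BSA buffer. Cells were injected onto compound, luminescence recorded 90 s and integrated, normalised to digitonin or 20 μM ATP; sigmoidal fit.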

The target of test [2] is T2, human EDG8 (S1PR5) receptor (Homo sapiens, UniProt Q9H228).
T2 construct: carries the transgenes human EDG8 (S1PR5) receptor (Acession number NP_110387.1); expressed in transfected cells; host or cells: CHO-A21-EDG8#12 (CHO clone co-expressing mitochondrial aequorin and chimaeric Gaqi5)
T2 sequence (Q9H228 whole entry): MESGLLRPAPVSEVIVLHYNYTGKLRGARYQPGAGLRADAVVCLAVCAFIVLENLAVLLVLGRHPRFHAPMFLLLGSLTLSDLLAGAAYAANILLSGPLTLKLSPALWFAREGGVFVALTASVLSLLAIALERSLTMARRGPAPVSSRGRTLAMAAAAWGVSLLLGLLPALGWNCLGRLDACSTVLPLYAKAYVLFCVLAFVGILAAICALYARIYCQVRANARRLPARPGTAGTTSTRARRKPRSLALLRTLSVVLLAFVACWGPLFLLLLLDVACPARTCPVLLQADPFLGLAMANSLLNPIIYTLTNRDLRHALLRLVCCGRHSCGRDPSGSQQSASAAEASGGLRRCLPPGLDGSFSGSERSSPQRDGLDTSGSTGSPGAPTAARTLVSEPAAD
As to the kind of experiment: Aequorin assay, agonist potency, CHO-A21-EDG8#12 cells. The note with it: agonist mode, aequorin luminescence; read-out: S1P5 EC50 range #. Summed up: as §1

Another test concerns the target T3, S1P4 (Homo sapiens, UniProt O95977).
T3 sequence (O95977 1-384): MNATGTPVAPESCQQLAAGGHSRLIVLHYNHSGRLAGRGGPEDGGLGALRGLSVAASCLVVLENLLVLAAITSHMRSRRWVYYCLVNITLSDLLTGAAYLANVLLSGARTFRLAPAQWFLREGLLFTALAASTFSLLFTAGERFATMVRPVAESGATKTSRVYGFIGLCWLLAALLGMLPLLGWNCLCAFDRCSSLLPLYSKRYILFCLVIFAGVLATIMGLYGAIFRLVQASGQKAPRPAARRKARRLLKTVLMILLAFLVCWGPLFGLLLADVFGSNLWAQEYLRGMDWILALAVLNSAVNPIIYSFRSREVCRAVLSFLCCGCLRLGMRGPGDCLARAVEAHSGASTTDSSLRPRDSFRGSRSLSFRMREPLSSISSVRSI
As to the kind of experiment: Aequorin assay, agonist potency, S1P4. The following applies: agonist mode, aequorin luminescence. Summed up:
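Cells loaded overnight at RT with 5 μM coelenterazine h in DMEM/HAM's F12 with HEPES plus 0.1% fatty acid-free BSA, then injected onto compounds; agonist-induced calcium luminescence recorded for 90 s and integrated. Signal normalised to digitonin (100 μM) or ATP (20 μM) wells, S1P as reference agonist; sigmoidal nonlinear regression.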

The term EC50 denotes the concentration at which the effect is half-maximal.

T1 sequence (P21453 whole entry): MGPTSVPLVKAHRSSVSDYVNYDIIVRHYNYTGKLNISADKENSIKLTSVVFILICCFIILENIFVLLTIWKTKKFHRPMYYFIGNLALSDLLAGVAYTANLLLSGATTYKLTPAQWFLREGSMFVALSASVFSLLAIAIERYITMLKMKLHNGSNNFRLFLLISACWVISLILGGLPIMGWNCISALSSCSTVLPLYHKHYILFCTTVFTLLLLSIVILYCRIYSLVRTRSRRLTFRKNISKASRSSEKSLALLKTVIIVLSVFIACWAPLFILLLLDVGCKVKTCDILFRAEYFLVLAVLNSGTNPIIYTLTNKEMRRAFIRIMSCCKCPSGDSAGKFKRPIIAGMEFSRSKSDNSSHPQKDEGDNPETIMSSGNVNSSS

As for `O=C(O)C1(CN2CC3(Cc4ccc(OCc5ccccc5Cl)cc4C3)C2)CC1` [Example 141, 1-((5′-((2-chlorobenzyl)oxy)-1′,3′-dihydrospiro[azetidine-3,2′-inden]-1-yl)methyl)cyclopropanecarboxylic acid], the EC50 is above 1 µM in test [1], 1 to 10 µM in test [2] and below 1 µM at S1P4.
The matching figures for `CCOc1ccc(COc2ccc3c(c2)CC2(C3)CN(C3CC(C(=O)O)C3)C2)c(F)c1F` (stereo not drawn) [Example 86, 3-(5′-((4-ethoxy-2,3-difluorobenzyl)oxy)-1′,3′-dihydrospiro[azetidine-3,2′-inden]-1-yl)cyclobutanecarboxylic acid]: above 1 µM, 1 to 10 µM and below 1 µM.
For `O=C(O)CN1CC2(Cc3ccc(OCc4cccc5c4CCC5)cc3C2)C1` [Example 74, 2-(5′-((2,3-dihydro-1H-inden-4-yl)methoxy)-1′,3′-dihydrospiro[azetidine-3,2′-inden]-1-yl)acetic acid], in that order: above 1 µM, at most 0.01 µM and below 1 µM.
For `O=C(O)[C@H]1C[C@H](N2CC3(Cc4ccc(OCc5cc(Cl)ccc5Cl)cc4C3)C2)C1` [Example 89, (1r,3r)-3-(5′-((2,5-dichlorobenzyl)oxy)-1′,3′-dihydrospiro[azetidine-3,2′-inden]-1-yl)cyclobutanecarboxylic acid], in that order: above 1 µM, 0.01 to 0.1 µM and below 1 µM.
As to `COc1ccc(CCOc2ccc3c(c2)CC2(C3)CN(CC3(C(=O)O)CC3)C2)cc1` [Example 135, 1-((5′-(4-methoxyphenethoxy)-1′,3′-dihydrospiro[azetidine-3,2′-inden]-1-yl)methyl)cyclopropanecarboxylic acid], the EC50 in test [1] was above 1 µM; in test [2], 1 to 10 µM; on S1P4 it was above 1 µM.
In the case of `CCCCc1ccc(COc2ccc3c(c2)CC2(C3)CN(CC(=O)O)C2)c(Cl)c1` [Example 3, 2-(5′-((4-butyl-2-chlorobenzyl)oxy)-1′,3′-dihydrospiro[azetidine-3,2′-inden]-1-yl)acetic acid], the half-maximal effective concentration (EC50) in test [1] is above 1 µM; in test [2] it was 1 to 10 µM; on S1P4 it was below 1 µM.
For `O=C(O)C1(CN2CC3(Cc4ccc(OCc5cc(Cl)ccc5Cl)cc4C3)C2)CC1` [Example 36, 1-((5′-((2,5-dichlorobenzyl)oxy)-1′,3′-dihydrospiro[azetidine-3,2′-inden]-1-yl)methyl)cyclopropanecarboxylic acid compound with acetic acid (1:1)], in that order: above 1 µM, 1 to 10 µM and below 1 µM.
For `O=C(O)C1(CN2CC3(Cc4ccc(OCCOc5ccccc5Cl)cc4C3)C2)CC1` [Example 145, 1-((5′-(2-(2-chlorophenoxy)ethoxy)-1′,3′-dihydrospiro[azetidine-3,2′-inden]-1-yl)methyl)cyclopropanecarboxylic acid], in that order: above 1 µM, 1 to 10 µM and below 1 µM.
Turning to `O=C(O)C1(CN2CC3(Cc4ccc(OCc5c(F)cccc5C(F)(F)F)cc4C3)C2)CC1` [Example 49, 1-((5′-((2-fluoro-6-(trifluoromethyl)benzyl)oxy)-1′,3′-dihydrospiro[azetidine-3,2′-inden]-1-yl)methyl)cyclopropanecarboxylic acid], the EC50 was above 1 µM in test [1], at most 0.01 µM in test [2] and below 1 µM at S1P4.
For `CCc1cccc(Cl)c1COc1ccc2c(c1)OC1(C2)CN(CC2(C(=O)O)CC2)C1` [Example 156, 1-((6′-((2-chloro-6-ethylbenzyl)oxy)-3′H-spiro[azetidine-3,2′-benzofuran]-1-yl)methyl)cyclopropanecarboxylic acid], in that order: above 1 µM, at most 0.01 µM and below 1 µM.
Turning to `CC1CCC(C#Cc2ccc3c(c2)OC2(C3)CN(CC(=O)O)C2)CC1` (stereo not drawn) [Example 155, 2-(6′-((4-methylcyclohexyl)ethynyl)-3′H-spiro[azetidine-3,2′-benzofuran]-1-yl)acetic acid], the values for the EC50 (in test [1]; in test [2]; on S1P4) were above 1 µM, 0.1 to 1 µM and below 1 µM, respectively.
The matching figures for `CC(Oc1ccc(C#Cc2ccc3c(c2)CC2(C3)CN(CC(=O)O)C2)cn1)C(F)(F)F` (stereo not drawn) [Example 79, 2-(5′-((6-((1,1,1-trifluoropropan-2-yl)oxy)pyridin-3-yl)ethynyl)-1′,3′-dihydrospiro[azetidine-3,2′-inden]-1-yl)acetic acid]: below 1 µM, at most 0.01 µM and below 1 µM.
As for `O=C(O)CN1CC2(Cc3ccc(OCc4c(F)cccc4C(F)(F)F)cc3C2)C1` [Example 19, 2-(5′-((2-fluoro-6-(trifluoromethyl)benzyl)oxy)-1′,3′-dihydrospiro[azetidine-3,2′-inden]-1-yl)acetic acid], the values for the EC50 (in test [1]; in test [2]; at S1P4) were above 1 µM, at most 0.01 µM and below 1 µM, respectively.
The matching figures for `O=C(O)CN1CC2(Cc3ccc(OC4Cc5ccccc5C4)cc3C2)C1` [Example 73, 2-(5′-((2,3-dihydro-1H-inden-2-yl)oxy)-1′,3′-dihydrospiro[azetidine-3,2′-inden]-1-yl)acetic acid]: above 1 µM, 0.1 to 1 µM and below 1 µM.
The matching figures for `COc1ccc(COc2ccc3c(c2)CC2(C3)CN(CC3(C(=O)O)CC3)C2)cc1` [Example 139, 1-((5′-((4-methoxybenzyl)oxy)-1′,3′-dihydrospiro[azetidine-3,2′-inden]-1-yl)methyl)cyclopropanecarboxylic acid]: above 1 µM, 1 to 10 µM and above 1 µM.
Regarding `O=C(O)C1CC(N2CC3(Cc4ccc(OC5CCc6cccc(Cl)c65)cc4C3)C2)C1` (stereo not drawn) [Example 106, 3-(5′-((7-chloro-2,3-dihydro-1H-inden-1-yl)oxy)-1′,3′-dihydrospiro[azetidine-3,2′-inden]-1-yl)cyclobutanecarboxylic acid], the EC50 in test [1] was below 1 µM; in test [2], at most 0.01 µM; at S1P4 it was below 1 µM.
For the molecule `O=C(O)CN1CC2(Cc3ccc(OCCc4ccccc4)cc3C2)C1` [Example 60, 2-(5′-phenethoxy-1′,3′-dihydrospiro[azetidine-3,2′-inden]-1-yl)acetic acid], the EC50 is above 1 µM in test [1], 1 to 10 µM in test [2] and above 1 µM at S1P4.
For `COc1ccc(C#Cc2ccc3c(c2)CC2(C3)CN(C3CC(C(=O)O)C3)C2)c(C)c1` (stereo not drawn) [Example 101, 3-(5′-((4-methoxy-2-methylphenyl)ethynyl)-1′,3′-dihydrospiro[azetidine-3,2′-inden]-1-yl)cyclobutanecarboxylic acid], the EC50 in test [1] was above 1 µM; in test [2] it was 1 to 10 µM; on S1P4, below 1 µM.
For `Cc1cccc(CCCOc2ccc3c(c2)CC2(C3)CN(CC3(C(=O)O)CC3)C2)n1` [Example 146, 1-((5′-(3-(6-methylpyridin-2-yl)propoxy)-1′,3′-dihydrospiro[azetidine-3,2′-inden]-1-yl)methyl)cyclopropanecarboxylic acid], in that order: above 1 µM, 1 to 10 µM and above 1 µM.
For `O=C(O)C1(CN2CC3(Cc4ccc(OCc5ccc(OCC6CC6)cc5)cc4C3)C2)CC1` [Example 128, 1-((5′-((4-(cyclopropylmethoxy)benzyl)oxy)-1′,3′-dihydrospiro[azetidine-3,2′-inden]-1-yl)methyl)cyclopropanecarboxylic acid], in that order: above 1 µM, 1 to 10 µM and above 1 µM.
Take `O=C(O)C1(CN2CC3(Cc4ccc(OCc5ccc(Cl)cc5Cl)cc4C3)C2)CC1` [Example 38, 1-((5′-((2,4-dichlorobenzyl)oxy)-1′,3′-dihydrospiro[azetidine-3,2′-inden]-1-yl)methyl)cyclopropanecarboxylic acid]: the EC50 in test [1] is above 1 µM; in test [2] it was 1 to 10 µM; at S1P4, below 1 µM.
The matching figures for `O=C(O)CN1CC2(Cc3ccc(C#Cc4ccc(Cl)cc4)cc3O2)C1` [Example 149, 2-(6′-((4-chlorophenyl)ethynyl)-3′H-spiro[azetidine-3,2′-benzofuran]-1-yl)acetic acid]: above 1 µM, 1 to 10 µM and above 1 µM.
For `O=C(O)CN1CC2(Cc3ccc(OC4CCc5cccc(Cl)c54)cc3C2)C1` (stereo not drawn) [Example 67, 2-(5′-((7-chloro-2,3-dihydro-1H-inden-1-yl)oxy)-1′,3′-dihydrospiro[azetidine-3,2′-inden]-1-yl)acetic acid], in that order: above 1 µM, at most 0.01 µM and below 1 µM.

Values taken from patent US20200055817A1 (AbbVie Deutschland GmbH & Co. KG, priority 2016, published 2020).
